The target of this assay is T1, short form of the GPR120 receptor (Homo sapiens, UniProt Q5NUL3).
T1 construct: host or cells: PathHunter CHO-K1 GPR120S β-Arrestin Cell Line
Nature of the assay: Human GPR120 DiscoveRx PathHunter Beta-Arrestin assay, Procedure β-arrestin B. In kind it is cell-based.

T1 sequence (Q5NUL3 whole entry): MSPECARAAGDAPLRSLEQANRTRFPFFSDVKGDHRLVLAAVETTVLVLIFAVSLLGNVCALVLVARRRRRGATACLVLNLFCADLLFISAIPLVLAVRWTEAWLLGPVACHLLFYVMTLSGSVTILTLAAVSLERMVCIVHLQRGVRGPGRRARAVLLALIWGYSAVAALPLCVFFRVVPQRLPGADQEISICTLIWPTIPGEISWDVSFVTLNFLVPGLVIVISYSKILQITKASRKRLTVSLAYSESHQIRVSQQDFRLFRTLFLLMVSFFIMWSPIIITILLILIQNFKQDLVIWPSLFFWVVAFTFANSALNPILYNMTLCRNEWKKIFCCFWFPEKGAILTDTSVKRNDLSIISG
T1 sequence (P32121 whole entry partner): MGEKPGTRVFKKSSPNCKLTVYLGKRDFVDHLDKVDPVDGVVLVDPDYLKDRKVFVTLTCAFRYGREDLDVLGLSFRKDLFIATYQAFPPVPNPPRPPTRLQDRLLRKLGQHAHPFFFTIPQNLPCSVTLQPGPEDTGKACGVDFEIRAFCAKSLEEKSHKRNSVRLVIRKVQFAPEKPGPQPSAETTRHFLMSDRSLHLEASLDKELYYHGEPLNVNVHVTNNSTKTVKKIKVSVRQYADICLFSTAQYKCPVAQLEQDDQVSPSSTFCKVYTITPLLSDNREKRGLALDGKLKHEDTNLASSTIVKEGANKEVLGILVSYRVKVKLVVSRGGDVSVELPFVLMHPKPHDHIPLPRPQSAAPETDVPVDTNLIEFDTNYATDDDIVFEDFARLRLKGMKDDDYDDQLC

As a reminder, the EC50 is the concentration needed to bring the measured effect to its halfway point. Low values mean an effect from little substance, high ones a need for much substance. As to `Cc1c(CCC(=O)O)ccc(OCC2=C(c3ccc(F)cc3)CCC2)c1C` [Compound 4, 3-[4-[[2-(4-fluorophenyl)cyclopenten-1-yl]methoxy]-2,3-dimethyl-phenyl]Propanoic Acid], the EC50 was found to be 164 nM.
The same measure for `Cc1c(CCC(=O)O)ccc(OCC2=C(c3ccc(Cl)cc3)CCC2)c1C` [Compound 15, 3-(4-((2-(4-chlorophenyl)cyclopent-1-en-1-yl)methoxy)-2,3-dimethylphenyl)Propanoic Acid]: 122 nM.
The same measure for `CCc1ccc(C2=C(COc3c(F)cc(CCC(=O)O)cc3F)CCC2)cc1` [Compound 16, 3-(4-((2-(4-ethylphenyl)cyclopent-1-en-1-yl)methoxy)-3,5-difluorophenyl)Propanoic Acid]: 149 nM.
With `Cc1c(CCC(=O)O)ccc(OCC2=C(c3ccc(OC(F)(F)F)cc3)CCC2)c1C` [Compound 20, 3-(2,3-dimethyl-4-((2-(4-(trifluoromethoxy)phenyl)cyclopent-1-en-1-yl)methoxy)phenyl)Propanoic Acid], the EC50 is greater than 5000 nM.
`Cc1c(CCC(=O)O)ccc(OCC2=C(c3ccccc3)CCC2)c1C` [Compound 23, 3-(2,3-dimethyl-4-((2-phenylcyclopent-1-en-1-yl)methoxy)phenyl)Propanoic Acid]: a half-maximal response (EC50) required 337 nM.
The molecule `O=C(O)CCc1ccc(OCC2=C(c3ccc(Cl)cc3)CCC2)cc1F` [Compound 47, 3-[4-[[2-(4-chlorophenyl)cyclopenten-1-yl]methoxy]-2-fluoro-phenyl]Propanoic Acid] registered an EC50 of 273 nM.
The value for `Cc1c(CCC(=O)O)ccc(OCC2=C(c3cccc(Cl)c3)CCC2)c1C` [Compound 58, 3-[4-[[2-(3-chlorophenyl)cyclopenten-1-yl]methoxy]-2,3-dimethyl-phenyl]Propanoic Acid] was 275 nM.
The value for `O=C(O)CCc1cc(F)c(OCC2=C(c3ccc(Cl)cc3)CCC2)c(F)c1` [Compound 60, 3-[4-[[2-(4-chlorophenyl)cyclopenten-1-yl]methoxy]-3,5-difluoro-phenyl]Propanoic Acid] was 359 nM; that for `COc1cc(F)cc(C2=C(COc3ccc(CCC(=O)O)c(C)c3C)CCC2)c1` [Compound 65, 3-[4-[[2-(3-fluoro-5-methoxy-phenyl)cyclopenten-1-yl]methoxy]-2,3-dimethyl-phenyl]Propanoic Acid] was 1630 nM.
`Cc1c(CCC(=O)O)ccc(OCC2=C(c3ccc(Cl)c(Cl)c3)CCC2)c1C` [Compound 66, 3-[4-[[2-(3,4-dichlorophenyl)cyclopenten-1-yl]methoxy]-2,3-dimethyl-phenyl]Propanoic Acid] displayed an EC50 of 629 nM.
The same measure for `O=C(O)CCc1ccc(OCC2=C(c3ccc(Cl)cc3)CCC2)c(F)c1F` [Compound 70, 3-[4-[[2-(4-chlorophenyl)cyclopenten-1-yl]methoxy]-2,3-difluoro-phenyl]Propanoic Acid]: 73 nM; for `Cc1ccc(C2=C(COc3ccc(CCC(=O)O)c(F)c3F)CCC2)c(C)c1` [Compound 72, 3-(4-((2-(2,4-dimethylphenyl)cyclopent-1-en-1-yl)methoxy)-2,3-difluorophenyl)Propanoic Acid]: 648 nM.
The value for `Cc1c(CCC(=O)O)ccc(OCC2=C(c3ccccc3Cl)CCC2)c1C` [Compound 76, 3-[4-[[2-(2-chlorophenyl)cyclopenten-1-yl]methoxy]-2,3-dimethyl-phenyl]Propanoic Acid] was 281 nM; that for `Cc1c(CCC(=O)O)ccc(OCC2=C(c3cccs3)CCC2)c1C` [Compound 77, 3-[2,3-dimethyl-4-[[2-(2-thienyl)cyclopenten-1-yl]methoxy]phenyl]Propanoic Acid] was 369 nM; that for `Cc1ccc(C2=C(COc3ccc(CCC(=O)O)c(F)c3F)CCC2)cc1F` [Compound 78, 3-(2,3-difluoro-4-((2-(3-fluoro-4-methylphenyl)cyclopent-1-en-1-yl)methoxy)phenyl)Propanoic Acid] was 75 nM.
The same measure for `Cc1c(CCC(=O)O)ccc(OCC2=C(c3nccs3)CCC2)c1C` [Compound 79, 3-[2,3-dimethyl-4-[(2-thiazol-2-ylcyclopenten-1-yl)methoxy]phenyl]Propanoic Acid]: 596 nM; for `Cc1ccc(C2=C(COc3ccc(CCC(=O)O)c(C)c3C)CCC2)c(C)c1` [Compound 82]: 1090 nM.
On to `Cc1ccc(C2=C(COc3ccc(CCC(=O)O)c(F)c3F)CCC2)cc1C` [Compound 83, 3-(4-((2-(3,4-dimethylphenyl)cyclopent-1-en-1-yl)methoxy)-2,3-difluorophenyl)Propanoic Acid], for which the concentration giving a half-maximal response (EC50) turned out to be 630 nM.
The same measure for `Cc1ccc(C2=C(COc3c(F)cc(CCC(=O)O)cc3F)CCC2)cc1C` [Compound 84, 3-(4-((2-(3,4-dimethylphenyl)cyclopent-1-en-1-yl)methoxy)-3,5-difluorophenyl)Propanoic Acid]: 533 nM; for `Cc1c(CCC(=O)O)ccc(OCC2=C(c3cncs3)CCC2)c1C` [Compound 88, 3-[2,3-dimethyl-4-[(2-thiazol-5-ylcyclopenten-1-yl)methoxy]phenyl]Propanoic Acid]: 588 nM; for `Cc1ccc(C2=C(COc3ccc(CCC(=O)O)c(F)c3F)CCC2)cc1N` [Compound 93, 3-(4-((2-(3-amino-4-methylphenyl)cyclopent-1-en-1-yl)methoxy)-2,3-difluorophenyl)Propanoic Acid]: 587 nM.
The value for `Cc1ccc(C2=C(COc3ccc(CCC(=O)O)c(F)c3F)CCC2)cc1` [Compound 94, 3-(2,3-difluoro-4-((2-(p-tolyl)cyclopent-1-en-1-yl)methoxy)phenyl)Propanoic Acid] was 47 nM; that for `Cc1ccc(C2=C(COc3c(F)cc(CCC(=O)O)cc3F)CCC2)cc1` [Compound 95, 3-(3,5-difluoro-4-((2-(p-tolyl)cyclopent-1-en-1-yl)methoxy)phenyl)Propanoic Acid] was 76 nM; that for `Cc1ccc(C2=C(COc3ccc(CCC(=O)O)cc3C)CCC2)cn1` [Compound 102, 3-(3-methyl-4-((2-(6-methylpyridin-3-yl)cyclopent-1-en-1-yl)methoxy)phenyl)Propanoic Acid] was 365 nM.
The same measure for `Cc1c(CCC(=O)O)ccc(OCC2=C(c3ncccn3)CCC2)c1C` [Compound 105, 3-[2,3-dimethyl-4-[(2-pyrimidin-2-ylcyclopenten-1-yl)methoxy]phenyl]Propanoic Acid]: 445 nM; for `Cc1ccc(C2=C(COc3ccc(CCC(=O)O)c(C)c3C)CCC2)cc1C` [Compound 106, 3-(4-((2-(3,4-dimethylphenyl)cyclopent-1-en-1-yl)methoxy)-2,3-dimethylphenyl)Propanoic Acid]: 853 nM.
`Cc1c(CCC(=O)O)ccc(OCC2=C(c3cccnc3)CCC2)c1C` [Compound 108, 3-[2,3-dimethyl-4-[[2-(3-pyridyl)cyclopenten-1-yl]methoxy]phenyl]Propanoic Acid]: the EC50 was determined as 807 nM.
The same measure for `Cc1ccc(C2=C(COc3c(F)cc(CCC(=O)O)cc3F)CCC2)cc1[N+](=O)[O-]` [Compound 109, 3-(3,5-difluoro-4-((2-(4-methyl-3-nitrophenyl)cyclopent-1-en-1-yl)methoxy)phenyl)Propanoic Acid]: 2460 nM; for `Cc1c(CCC(=O)O)ccc(OCC2=C(c3ccccc3Br)CCC2)c1C` [Compound 111, 3-[4-[[2-(2-bromophenyl)cyclopenten-1-yl]methoxy]-2,3-dimethyl-phenyl]Propanoic Acid]: 2710 nM; for `O=C(O)CCc1c(F)c(F)c(OCC2=C(c3ccc(Cl)cc3)CCC2)c(F)c1F` [Compound 122, 3-[4-[[2-(4-chlorophenyl)cyclopenten-1-yl]methoxy]-2,3,5,6-tetrafluoro-phenyl]Propanoic Acid]: 397 nM.
The value for `Cc1c(CCC(=O)O)ccc(OCC2=C(c3ccccc3F)CCC2)c1C` [Compound 124, 3-[4-[[2-(2-fluorophenyl)cyclopenten-1-yl]methoxy]-2,3-dimethyl-phenyl]Propanoic Acid] was 235 nM; that for `Cc1cc(OCC2=C(c3ccc(Cl)cc3)CCC2)ccc1CCC(=O)O` [Compound 131, 3-[4-[[2-(4-chlorophenyl)cyclopenten-1-yl]methoxy]-2-methyl-phenyl]Propanoic Acid] was 566 nM.
The same measure for `Cc1ccccc1C1=C(COc2ccc(CCC(=O)O)c(C)c2C)CCC1` [Compound 132, 3-[2,3-dimethyl-4-[[2-(o-tolyl)cyclopenten-1-yl]methoxy]phenyl]Propanoic Acid]: 1800 nM.
On to `Cc1c(CCC(=O)O)ccc(OCC2=C(c3ccc(Cl)cc3Cl)CCC2)c1C` [Compound 133, 3-[4-[[2-(2,4-dichlorophenyl)cyclopenten-1-yl]methoxy]-2,3-dimethyl-phenyl]Propanoic Acid], for which the EC50 came to 1130 nM.
The same measure for `Cc1ccc(C2=C(COc3ccc(CCC(=O)O)c(C)c3C)CCC2)cc1N` [Compound 134, 3-(4-((2-(3-amino-4-methylphenyl)cyclopent-1-en-1-yl)methoxy)-2,3-dimethylphenyl)Propanoic Acid]: 740 nM; for `COc1cccc(C2=C(COc3ccc(CCC(=O)O)c(C)c3C)CCC2)c1` [Compound 141, 3-[4-[[2-(3-methoxyphenyl)cyclopenten-1-yl]methoxy]-2,3-dimethyl-phenyl]Propanoic Acid]: 1230 nM; for `Cc1c(CCC(=O)O)ccc(OCC2=C(c3ccccn3)CCC2)c1C` [Compound 147, 3-[2,3-dimethyl-4-[[2-(2-pyridyl)cyclopenten-1-yl]methoxy]phenyl]Propanoic Acid]: 923 nM.
The value for `O=C(O)CCc1ccc(OCC2=C(c3ccc(Cl)cc3)CCC2)c(F)c1` [Compound 149, 3-[4-[[2-(4-chlorophenyl)cyclopenten-1-yl]methoxy]-3-fluoro-phenyl]Propanoic Acid] was 90 nM; that for `O=C(O)CCc1ccc(OCC2=C(c3ccc(Cl)cc3)CCC2)cc1` [Compound 153, 3-[4-[[2-(4-chlorophenyl)cyclopenten-1-yl]methoxy]phenyl]Propanoic Acid] was 93 nM.

(Values after patent US11230526B1, “Cylcoalkenyl derivatives useful as agonists of the GPR120 and/or GPR40 receptors” (Janssen Pharmaceutica NV, priority 2018, dated 2022).)
